Patent US11304988B2, “Inhibiting tumor cell migration by inhibition of kinesin light chain 1, variant 1 (KLC1C)” (Northwestern University, priority 2018, dated 2022)
Entries after “also recorded” stand apart in the source; their conditions may differ.

Legend:
[1] = test system: A375 human melanoma cells; assay: tumor cell TEM assay, A375 melanoma cells across EC (HUVEC) monolayers; format: cell-based; settings: for melanoma cell TEM in vitro (in words): human melanoma cells across human EC monolayer; for melanoma cell transmigration across endothelial cell monolayers, prostaglandin receptor inhibitors: HUVEC pretreated 1 hour then washed, A375 cells, inhibitor used at 10× its IC50
Method: FIG. 7. Tat-KLC1c peptide blocks tumor cell TEM. A375 human melanoma cells were allowed to transmigrate for 2 hours across EC monolayers pre-incubated (then washed extensively) with Tat-KLC1c or Tat-Scr. The 50% block in TEM is representative of at least 6 independent experiments.
FIG. 10. Platelets modestly increase melanoma cell migration through an LBRC-dependent mechanism. The tumor cell TEM assay was carried out in the presence or absence of human platelets, which were added to the tumor cells at the time of peptide addition and immediately prior to addition to the endothelial cell monolayer. Transmigration proceeded for 2 hours.
FIG. 17. […] HUVEC monolayers were pretreated with 100 nM Tat peptides or the indicated doses of PF-04418948 (EP2 inhibitor) or AAT008 (EP4 antagonist) for 1 hour then washed exten-sively before adding A375 cells. Transmigration proceeded for 2 hours.
FIG. 18. Optimal concentrations of Tat-KLC1c peptide and EP4 antagonist are not additive. Transmigration assays as in FIG. 16 with 100 μM Tat-peptides, 100 nM AAT-008, or both. Mean±S.D. of 6 replicates for each condition. * p<0.0004 vs. Scr; NS vs each other.
(§1) Tumor cells that transmigrate using the LBRC do so without destroying the endothelial cell monolayer. […] The Tat-KLC1c peptide has no effect on the ability of tumor cells to move per se (FIG. 8), nor on tumor cell viability or growth (FIG. 9).

neutrophils = assay: intravital confocal microscopy of neutrophil transmigration in IL-1β-inflamed cremaster muscle; format: in vivo; settings: anesthetized mouse; for neutrophil extravasation (cumulative transmigration): postcapillary venules, response to IL-1β, after injection of peptide
Description: FIG. 4. TAT-KLC1c blocks TEM in vivo. In the inflamed cremaster muscle of an anesthetized mouse, fluorescent neutrophils were observed by intravital spinning disc confocal microscopy to transmigrate steadily from postcapillary venules in response to IL-1β.

PMN = assay: croton oil acute dermatitis of ear skin, PMN transmigration; format: in vivo, mouse; settings: i.v. to achieve 0.1 μM in blood, one hour before croton oil; ear skin examined six hours later
Method: FIG. 5. TAT-KLC1c blocks TEM in vivo. Mice received TAT-Scr or TAT-KLC1c i.v. at a concentration to achieve 0.1 μM in blood. One hour later, croton oil was applied to mouse ear skin to induce acute dermatitis. Six hours later mice were sacrificed and ear skin examined in whole mount by confocal microscopy. Representative images are shown. In mice receiving Tat-Scr, a mean of 70% of PMN exited the vessels, while in mice receiving Tat-KLC1c, transmigration was decreased to 12%.

B16F10 melanoma cells [2] = assay: melanoma cell extravasation in lung in vivo after tail vein injection; parameters: species or system mouse; settings: for visualized tumor cells that had transmigrated: C57Bl/6 mice, peptide 1 hour prior to CFSE-labeled B16F10 via tail vein, sacrificed six hours later
Method: FIG. 11. Visualizing melanoma cell extravasation in vivo. Single XY plane from confocal image of CFSE-labeled B16F10 cells in Tat-Scr treated mouse lung 6 hr. after i.v. injection of 10^6 tumor cells. Two tumor cells (arrows) have migrated out of vasculature while another one (arrowhead) remains inside the vessel.
FIG. 12. […] Quantification of block by Tat-KLC1c (Mean±S.D) * p<0.01.
C57Bl/6 mice received KLC1c or scrambled peptide 1 hour prior to receiving carboxyfluorescein (CFSE)-labeled B16F10 melanoma cells via tail vein. They were sacrificed six hours later so that data would reflect the effects on extravasation per se rather than survival or growth (Ref. B10; herein incorporated by reference in its entirety). Immediately prior to sacrifice a fluorescent anti-PECAM antibody was injected i.v. to stain vasculature. Lungs were inflated with 4% paraformaldehyde (PFA) and fixed overnight in PFA, then cryopreserved in sucrose. 100 μm thick frozen sections were cut and examined by spinning disc confocal microscopy with images taken every 1 μm of specimen depth. 30% of visualized tumor cells had transmigrated in the mice receiving scrambled peptide, whereas only ˜9% had transmigrated in mice receiving Tat-KLC1c peptide—a 70% reduction (FIGS. 11,12). […] In a separate experiment, age- and sex-matched C57Bl/6 mice syngeneic to the tumor were randomized to receive Tat-Scr or Tat-KLC1c parenterally at a concentration calculated to achieve 0.1 μM in vivo 1 h. before and 18 h. after receiving 1×10^6 syngeneic B16F10 melanoma cells in 100 μl via tail vein. Lung metastases were enumerated 14 days later under a dissecting microscope. The Tat-KLC1c group had over 90% fewer (FIG. 13, p=0.00204). […] Even though Tat-KLC1c blocks about ⅓ (in vitro) to ⅔ (in vivo) of melanoma extravasation events, the number of metastatic colonies that grow out are disproportionately lower.

B16F10 melanoma cells [3] = assay: Transwell filter migration of tumor cells toward serum-containing medium (B16F10); format: cell-based, mouse; settings: 100 nM peptide, 12 hours, 8 μM pore size Transwell
Method: (§2) FIG. 8. […] 1×10^4 A375 human melanoma cells or 1×10^4 B16F10 melanoma cells were resuspended in serum-free medium and placed in the upper chamber of Transwell filters ([…]) and allowed to migrate in response to serum-containing medium in the bottom chamber in the presence of 100 nM Tat-Scr, Tat-KLC1c or no additives. The total number of tumor cells in the bottom well 12 hours later was enumerated. Data are mean±S.D. for four replicates of each sample.

[4] = test system: A375 human melanoma cells; assay: Transwell filter migration of tumor cells toward serum-containing medium (A375); format: cell-based; settings: 100 nM peptide, 12 hours, 8 μM pore size Transwell
Method: as §2

[5] = test system: Human umbilical vein endothelial cells; assay: in vitro transendothelial migration (TEM) of human monocytes across endothelial cell monolayers; format: cell-based; settings: endothelial cells incubated 30 minutes with 0.01 μM or 0.1 μM peptide, washed, one hour with human monocytes; compared to untreated
Method: FIG. 3. Blocking Kinesin Light Chain 1c function via TAT-KLC1c peptide inhibits transmigration. Human umbilical vein endothelial cells. Endothelial cells were incubated for 30 minutes with either 0 μM (untreated), 0.01 μM, or 0.1 μM TAT-KLC1c peptide (or scrambled TAT-peptide) at 37° C., then washed prior to a one hour incubation with human monocytes. The cells were then washed, fixed, and the percentage of cells transmigrated (% TEM) was quantified. […] Data shown are mean±SEM for 3 experiments. * p<0.01 compared to untreated.
(§3) FIG. 16. […] Data are mean±SD of 6 replicates. *p<0.005 vs. Scr.
as §1

A375M melanoma cells = assay: A375M transendothelial migration assay; format: cell-based, human; settings: for lowest concentration with significant effects on tumor cell transmigration / melanoma / tumor cell transmigration with free radical scavengers and anti-oxidants (in words): A375M; for melanoma / tumor cell transmigration with free radical scavengers and anti-oxidants (in words): indicated concentrations, vs. Scr; for inhibition of melanoma cell TEM compared with Tat-KLC1c peptide: at 10 mM, vs optimal concentration of Tat-KLC1c peptide
Method: as §3
FIG. 19. […] A375M transendothelial migration assays were carried out in the presence of Tat-peptides or the indicated concentrations of Trolox or N-acetylcysteine. Data are mean±SD of ≥3 replicates for each condition. *p<0.01 for all inhibitors vs. Scr.

B16F10 melanoma cells [6] = assay: lung metastatic colony formation after tail vein injection of B16F10 cells; format: in vivo, mouse
Method: Age- and sex-matched C57Bl/6 mice were injected with Tat-Scr (Scr) or Tat-KLC1c (KLC1c) 1 hr before and 18 hr after injection of 10^6 B16F10 melanoma cells via tail vein. 14 days later lungs were inflated with formalin, and metastases counted. (A) Representative gross photos of lungs from mice that received Tat-Scr (top) and Tat-KLC1c (bottom). Arrows point to some of the metastases. (B) Graphical representation of results. Dots are values for individual mice. (TNTC)=too numerous to count. Lines show mean±S.D., p=0.00204 by ANOVA not including the TNTC data.
C57Bl/6 mice received KLC1c or scrambled peptide 1 hour prior to receiving carboxyfluorescein (CFSE)-labeled B16F10 melanoma cells via tail vein. They were sacrificed six hours later so that data would reflect the effects on extravasation per se rather than survival or growth (Ref. B10; herein incorporated by reference in its entirety). Immediately prior to sacrifice a fluorescent anti-PECAM antibody was injected i.v. to stain vasculature. […] In a separate experiment, age- and sex-matched C57Bl/6 mice syngeneic to the tumor were randomized to receive Tat-Scr or Tat-KLC1c parenterally at a concentration calculated to achieve 0.1 μM in vivo 1 h. before and 18 h. after receiving 1×10^6 syngeneic B16F10 melanoma cells in 100 μl via tail vein. […]

B16F10 melanoma cells [7] = assay: growth of B16F10 melanoma cells in culture over two weeks; format: cell-based, mouse; settings: 100 nM peptide, two-week period
Method: FIG. 9. […] Melanoma cells were plated at a density of 1×10^5/ml on 80 mm plates with 100 nM Tat-Scr or Tat-KLC1c. Cells were trypsinized and counted on the indicated days, diluted and 4×10^6 viable cells re-plated in fresh peptide. Total cells in the culture are shown.

Row | Compound | melanoma cell TEM in vitro (in words) [1] | neutrophil extravasation (cumulative transmigration) (neutrophils) | mean PMN exited the vessels (transmigration) (PMN) [%] | visualized tumor cells that had transmigrated (B16F10 melanoma cells [2]; lung) [%] | tumor cell migration, total number of tumor cells in the bottom well (B16F10 melanoma cells [3]) | tumor cell migration, total number of tumor cells in the bottom well [4] | percentage of cells transmigrated (% TEM) [5] | lowest concentration with significant effects on tumor cell transmigration (A375M melanoma cells) [µM] | melanoma / tumor cell transmigration with free radical scavengers and anti-oxidants (in words) (A375M melanoma cells) | inhibition of melanoma cell TEM compared with Tat-KLC1c peptide (A375M melanoma cells) | other results
1 | Tat-Scr: negative control peptide contains the same ten amino acids in a random order (scrambled, Scr); SEQ ID NO: 9 (YGRKKRRQRRRGGGGKLNKMVMLR) [reference compound] | no effect | no effect | 70 | 30 | no significant differences | no significant differences | not | – | – | – | –
2 | Cc1c(C)c2c(c(C)c1O)CCC(C)(C(=O)O)O2 (stereo not shown) [Trolox, 6-hydroxy-2,5,7,8-tetramethylchroman-2-carboxylic acid] | – | – | – | – | – | – | – | 100 | reduces tumor cell transmigration in a dose-dependent manner; also recorded: inhibit melanoma transmigration | as effectively as the optimal concentration of Tat-KLC1c peptide | –
3 | Tat-KLC1c: 11-amino acid basic region from HIV Tat protein, glycine tripeptide linker, C-terminal decapeptide of KLC1c (MRKMKLGLVN); SEQ ID NO: 8 (YGRKKRRQRRRGGGMRKMKLGLVN) | significantly blocks | markedly inhibited | 12 | ~9 | no direct effect | no direct effect | significantly decreased TEM | – | – | – | block in TEM ([1]; EC monolayers pre-incubated with peptide then washed, 2 hours, vs Tat-Scr, representative of at least 6 experiments): 50%; reduction of tumor cell TEM ([1]; FIG. 10 experiment, without platelets, 2 hours, vs. scr): 33%; additional TEM in the presence of platelets ([1]; human platelets added to tumor cells, 2 hours): blocked; also recorded: down to the same level; melanoma extravasation events blocked (in vitro) ([1]; in vitro): about ⅓; time after injection until cumulative transmigration began to plateau (neutrophils; IL-1β-inflamed cremaster): ≤ 10 min; melanoma extravasation (in words) (B16F10 melanoma cells [2]; FIG. 12 quantification): blocks melanoma extravasation; reduction of transmigrated tumor cells (B16F10 melanoma cells [2]; Tat-KLC1c vs scrambled peptide, six hours, lung): 70%; melanoma extravasation events blocked (in vivo) (B16F10 melanoma cells [2]; in vivo): ⅔; fewer lung metastases than Tat-Scr group (B16F10 melanoma cells [6]; 0.1 μM in vivo, 1 h before and 18 h after 1×10^6 B16F10 cells via tail vein, 14 days later): over 90%; metastatic colony formation (in words) (B16F10 melanoma cells [6]; C57Bl/6 mice, B16F10, 14 days): significantly blocked the establishment of metastatic colonies; also recorded: prevents metastatic colony formation; tumor cell viability or growth (total cells in the culture) (B16F10 melanoma cells [7]): no effect; also recorded: does not affect growth
4 | C[C@H](NC(=O)c1cc(Cl)cnc1Oc1cccc(F)c1)c1ccc(C(=O)O)cc1 [AAT-008, reference compound] | – | – | – | – | – | – | – | – | – | – | melanoma cell transmigration across endothelial cell monolayers, prostaglandin receptor inhibitors ([1]; 2 hours): block melanoma cell transmigration; melanoma cell transmigration across endothelial cell monolayers, prostaglandin receptor inhibitors ([1]; 2 hours, listed as AAT008): blocks melanoma transmigration; block to melanoma cell transmigration compared with Tat-KLC1c ([1]; vs Tat-KLC1c at its optimal concentration): as effective as using Tat-KLC1c at its optimal concentration
5 | CC(=O)N[C@@H](CS)C(=O)O [N-acetylcysteine] | – | – | – | – | – | – | – | 100 | reduces tumor cell transmigration in a dose-dependent manner; also recorded: inhibit melanoma transmigration | as effectively as the optimal concentration of Tat-KLC1c peptide | –
